Structures can show the parent of a compound that is named as a salt.
Columns and labels:
[1] = system: dog model for diabetes; assay: Dog model for diabetes, indicators of ventricular elasticity; type: in vivo; conditions: indicator of ventricular elasticity
Source text: (§1) Cardiovascular risk correlates more closely with the systolic and the pulse pressure than with the diastolic pressure. In diabetic patients, the cardiovascular risk profile of diabetic patients is strongly correlated to duration of diabetes, glycemic control and blood pressure. Structural matrix proteins contribute to the function of vessels and the heart, and changes in the physical behavior of cardiovascular walls are believed to be important determinants of circulatory function. In elderly individuals, the loss of compliance in the aorta leads to systolic hypertension and isolated systolic hypertension, which in turn expands the arterial wall and thereby diminishes the dynamic range of elasticity. […] These studies indicate that prodrugs of such thiazolium compounds should have a similar effect.

[2] = system: collagen in cardiovascular tissues; assay: Mass of collagen in cardiovascular tissues after treatment; conditions: in vivo
Source text: as §1

[3] = system: Type IV collagen; assay: In situ hybridization studies, Type IV collagen expression; type: in vivo
Source text: as §1

[4] = system: TGFbeta; assay: In situ hybridization studies, TGFbeta expression; type: in vivo
Source text: as §1

[5] = system: elderly patients with pulse pressures greater than 60 mm Hg; assay: Phase IIa clinical trial; type: in vivo, human; conditions: for left ventricular mass: Phase IIa clinical trial, echocardiography
Source text: as §1
Pulse pressure is the difference between systolic and diastolic blood pressure. In a young human, systolic pressure is typically 120 mm Hg and diastolic pressure is 80 mm Hg, resulting in a pulse pressure of 40 mm Hg. With age, in many individuals pulse pressure increases, largely due to the increase in systolic pressure that results from stiff vessel disease. In individuals with pulse pressure greater than 60 mm Hg there is an increased risk of death from cardiovascular morbidities. […] This decrease in pulse pressure was believed to be due primarily to the effect of the agent on lowering the systolic blood pressure.
When the heart pumps blood into the vascular system, the ability of the arteries to expand helps to push blood through the body. When arteries become stiff, as they do in the natural process of aging, the ability of the arteries to expand is diminished which also has consequences for the heart. The heart has to work harder to pump the blood into the stiff arteries, and it eventually hypertrophies (enlarges in size) to accomplish this. A hypertrophied heart is an inefficient pump, and is one of the disorders that leads to congestive heart failure. […] Such a compound can be provided by administration of an N-formyl thiazine compound, (i.e., 2-hydroxy-5,6-dimethyl-2-phenyl-2,3-dihydro-(1,4)thiazine-4-carbaldehyde) and conversion of the compound under, for example, acidic conditions in the stomach, to the corresponding thiazolium salt. The potential clinical benefit of this is to lessen the effort that the heart must expend to push blood throughout the body. The effect is also believed to contribute to preventing hypertrophy and subsequent inefficiency of the heart, which inefficiency would contribute to congestive heart failure.
Atherosclerosis is a disease that involves deposition of blood lipids in plaque in the arteries throughout the body. In coronary arteries, accumulation of plaque progressively leads to reduced coronary flow, with occlusion of the arteries causing focal death of cardiac tissue (myocardial infarction, heart attack). If the amount of tissue that dies is large enough, death ensues. […] Reducing local deposits of plaque should eventually lessen the risk of myocardial infarction and death due to heart attacks.

[6] = system: Rhesus monkeys; conditions: drug treated vs. control eye, baseline and pilocarpine-stimulated; see the '112 application; cited from earlier work
[7] = system: Rhesus monkeys; conditions: pilocarpine-stimulated accommodation; see the '112 application; cited from earlier work
[8] = Conversion of dihydrothiazine to thiazolium chloride under acidic conditions; type: physicochemical
Experimental: The following experiment provides evidence that thiazine structures related to compound la can be converted under acidic conditions to thiazolium structures, and thus can serve as pro-drug forms of thiazolium agents.
Compound Ia (2.48 mmol, 0.620 g) was weighed into a 100 mL round bottom flask equipped with magnetic stir bar. Methanol (40 mL) was added, and the solution was stirred until all solid was dissolved. Aqueous hydrochloric acid was added (1N, 3.968 mmol, 4.0 mL) and the reaction solution stirred at ambient temperature for 48 hours. The methanol was removed in vacuo, and the residue was diluted with 25 mL of distilled water. The aqueous layer was extracted with methyl t-butyl ether (2×20 mL). The aqueous layer was concentrated to dryness in vacuo and the residue was crystallized with acetonitrile, methyl-t-butyl-ether (1:1). The crystals were collected via filtration to give 598 mg (90% yield) of 4,5-dimethyl-3-(2-oxo-2-phenylethyl)-thiazolium chloride. […]
In a 15 mL round bottom flask, stirred with a magnetic stirrer, was charged 36 mg (0.16 mmol) of compound Ib (prepared as described by Thornalley et al., Biochemical Pharmacology, vol. 57,pp 303-308, 1999), 2 mL of 1% hydrochloric acid and 2 mL of Ethyl Acetate. Since there was no reaction as monitored by HPLC, 2 mL of 5N Hydrochloric acid, and 2 mL of methanol was added, and the flask was heated to 35° C. […]

Row | conversion to thiazolium under acidic conditions ([8]; 1% hydrochloric acid and ethyl acetate, monitored by HPLC) | time until the conversion to thiazolium chloride was finished ([8]; after adding 5N hydrochloric acid and methanol, 35° C., HPLC) | SMILES | end diastolic pressure [1] | end diastolic volume [1] | mass of collagen in cardiovascular tissues [2] | expression of Type IV collagen [3] | expression of TGFbeta [4] | left ventricular mass [5] | left ventricular mass ([5]; listed as 3-[2-phenyl-2-oxoethyl]-4,5-dimethyl-thiazolium chloride salt) | stiffness of arteries (ratio of stroke volume (ml) to pulse pressure (mm Hg)) ([5]; Phase IIa clinical trials) | amount of circulating triglycerides (lipids) ([5]; Phase IIa trial) | pulse pressure ([5]; Phase IIa trial, elderly patients with pulse pressures greater than 60 mm Hg, statistically significant) | improvement in fluid outflow facility (ophthalmologic function) [6] | improvement in accommodation [7]
1 | – | – | Cc1sc[n+](CC(=O)c2ccccc2)c1C [3-[2-phenyl-2-oxoethyl]-4,5-dimethyl-thiazolium salt] | returned to a value at about the mid-point between the disease impaired value and the value for control dogs | returned to a value at about the mid-point between the disease impaired value and the value for control dogs | reduction in the mass of collagen | reduces the expression | reduces the expression | reduction of left ventricular mass | reduce left ventricular mass | reverse the stiffness of arteries | increased the amount of circulating triglycerides | reduced pulse pressure | improvement has been illustrated | Improvement in accommodation has been illustrated
2 | no reaction | about 15 h | O=CN1C=CSC(O)(c2ccccc2)C1 (centres unmarked) [Ib, 2-Hydroxy-2-Phenyl-2,3-Dihydro-(1,4)thiazine-4-carbaldehyde] | – | – | – | – | – | – | – | – | – | – | – | –

— US7511036B2, “Dihydrothiazine prodrugs of thiazolium agents” (Synvista Therapeutics, Inc., priority 2003, dated 2009)
